Values quoted from earlier work in patent US6517854B2, “Antimicrobial sanitizing lotion with skin protection properties” (priority 1999, dated 2003).

Legend:
[1] = test system: fungi and yeasts; settings: organisms listed in the 1st table r65-r73
[2] = test system: gram-positive bacteria; settings: organisms listed in the 1st table r1-r26
[3] = test system: gram-negative bacteria; settings: organisms listed in the 1st table r28-r63

Oc1cc(Cl)ccc1Oc1ccc(Cl)cc1Cl [TRICLOSAN, 2,4,4′-trichloro-2′-hydroxydiphenyl ether]
demonstrated efficacy: efficacy against fungi and yeasts [1] | efficacy against gram-positive bacteria [2] | efficacy against gram-negative bacteria [3]
